Data from PubChem BioAssay AID1963867 (Molecular Pharmacology Branch, DTP, NCI, 2024).
pIC50: −log10 of the molar value.

Test system: KRAS-mutant PDC tumor spheroid with HUVEC/MSC, viability
Assay: Anticancer human tumor 327498-153-R-J2-PDC patient-derived uterine carcinosarcoma cell line growth inhibition [KRAS2]
Settings: for pIC50: curve of first compound; for viability, T/C: stronger effect = lower value; active means viability on the fitted dose curve at most 10% of control; inactive means the rest
Excerpt: Multicellular complex tumor spheroid response to RAS pathway inhibitors in combination with a targeted agents in patient-derived cell lines with oncogenic KRAS variants from multiple cancer types
A high-throughput screen of multi-cell type tumor spheroids was designed to identify active combinations of targeted small molecules and KRAS pathway inhibitors. Complex spheroids include a stromal component modeled by human endothelial cells (HUVEC) and fibroblasts modeled by human mesenchymal stem cells (MSCs). The concentration ranges selected for each drug and investigational agent were based upon clinically achievable concentrations if the clinical Cmax of the agent was known.
Compounds. The drugs and investigational agents: BI-3406 (NSC825286), BAY-293 (NSC824723), batoprotafib (TNO155; NSC825523), sotorasib (AMG 510; NSC818433), MRTX1257 (NSC819558), elimusertib (BAY 1895344; NSC800525), molibresib (GSK525762; NSC774829), temuterkib (LY3214996; NSC803410), venetoclax (NSC766270), alisertib (NSC759677), olaparib (NSC753686), talazoparib (NSC767125), erdafitinib (NSC781556), ipatasertib (NSC767898), cabozantinib (NSC761068), nintedanib (NSC756659), abemaciclib (NSC768073), docetaxel (NSC628503), trametinib (NSC758246), and sapanisertib (NSC764658) were obtained from the National Cancer Institute (NCI) Developmental Therapeutics Program Chemical Repository. The FDA-approved anticancer drug set is available from the Developmental Therapeutics Program. […] The stock solutions were prepared in dimethyl sulfoxide (DMSO, Sigma-Aldrich, St. Louis, MO, cat. D2650) at 800-fold the tested concentration and stored at -70 degrees C prior to their use. All drugs and investigational agents were tested over a range starting from a high concentration at or near the clinical Cmax and decreasing in half-log increments. If the clinical Cmax for an agent had not been determined, the highest concentration tested was 10 microM.
Cell Culture. All cells were maintained in an incubator at 37 degrees C and 5% CO2 with 95% humidity. The PDC lines were cultured according to standard operating procedures established by the NCI PDMR (https://pdmr.cancer.gov/sops/default.htm). Briefly, all PDCs were thawed and cultured in Matrigel-coated flasks prepared with a working solution of 1X Ham's F-12 nutrient mix, without supplementation (Invitrogen, Waltham, MA, cat. 11765054), 100 U/mL penicillin-streptomycin (Invitrogen, cat. 15140122), and 2.5% Matrigel (Corning Inc., Corning, NY, cat. 354248) for the first three passages. All PDCs were cultured in complete DMEM/F-12 media containing advanced DMEM/F-12 (Invitrogen, cat. 12634028), 4.9% defined fetal bovine serum, heat inactivated (HyClone Laboratories Inc., Logan, UT, cat. SH30070.03HI), 389 ng/mL hydrocortisone (Sigma-Aldrich, cat. H4001), 9.7 ng/mL human EGF recombinant protein (Invitrogen, cat. PHG0313), 23.4 microg/mL adenine (Sigma-Aldrich, cat. A2786), 97.3 U/mL penicillin-streptomycin (Invitrogen, cat. 15140122), 1.9 mM L-glutamine (Invitrogen, cat. 25030081), and 9.7 microM Y-27632 dihydrochloride (Tocris Bioscience, Bristol, United Kingdom, cat. 1254). The PDCs were cultured in complete DMEM/F12 media without 9.7 microM Y-27632 dihydrochloride for at least two passages prior to the screen. The established cell line HOP-62 was cultured in RPMI 1640 medium, HEPES (Invitrogen, cat. 22400105) with 10% defined fetal bovine serum (HyClone Laboratories Inc., cat. SH30070.03) and 2 mM L-glutamine (Invitrogen, cat. 25030081). The pooled donor HUVEC were cultured in endothelial cell growth medium 2 (PromoCell, Heidelberg, Germany, cat. C-22011) and the hMSC were cultured in mesenchymal stem cell growth medium 2 (PromoCell, cat. C-28009). For all experiments, HUVEC and hMSC were used at passages </=5, while the malignant cell lines were used at passages </=15. […]

[1] = second compound 0.1 µM, first compound 0.0316 µM
[2] = second compound 0.1 µM, first compound 0.1 µM
[3] = second compound 0.1 µM, first compound 0.316 µM
[4] = second compound 0.1 µM, first compound 1 µM
[5] = second compound 0.1 µM, first compound 3.16 µM
[6] = second compound 0.1 µM, first compound 10 µM
[7] = second compound 0.316 µM, first compound 0.0316 µM
[8] = second compound 0.316 µM, first compound 0.1 µM
[9] = second compound 0.316 µM, first compound 0.316 µM
[10] = second compound 0.316 µM, first compound 1 µM
[11] = second compound 0.316 µM, first compound 3.16 µM
[12] = second compound 0.316 µM, first compound 10 µM
[13] = second compound 1 µM, first compound 0.0316 µM
[14] = second compound 1 µM, first compound 0.1 µM
[15] = second compound 1 µM, first compound 0.316 µM
[16] = second compound 1 µM, first compound 1 µM
[17] = second compound 1 µM, first compound 3.16 µM
[18] = second compound 1 µM, first compound 10 µM
[19] = second compound 3.16 µM, first compound 0.0316 µM
[20] = second compound 3.16 µM, first compound 0.1 µM
[21] = second compound 3.16 µM, first compound 0.316 µM
[22] = second compound 3.16 µM, first compound 1 µM
[23] = second compound 3.16 µM, first compound 3.16 µM
[24] = second compound 3.16 µM, first compound 10 µM
[25] = second compound 10 µM, first compound 0.0316 µM
[26] = second compound 10 µM, first compound 0.1 µM
[27] = second compound 10 µM, first compound 0.316 µM
[28] = second compound 10 µM, first compound 1 µM
[29] = second compound 10 µM, first compound 3.16 µM
[30] = second compound 10 µM, first compound 10 µM
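Further: spheroids exposed to agents for seven days before reading.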
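Wherever viability, T/C is given: 100% = DMSO vehicle wells so lower means fewer viable cells.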

COC(=O)c1ccc2c(C(=Nc3ccc(N(C)C(=O)CN4CCN(C)CC4)cc3)c3ccccc3)c(O)[nH]c2c1 + C=CC(=O)N1CCN(c2nc(=O)n(-c3c(C)ccnc3C(C)C)c3nc(-c4c(O)cccc4F)c(F)cc23)C(C)C1
> 7.50: pIC50 (second compound 0.316 µM) | pIC50 (second compound 1 µM) | pIC50 (second compound 3.16 µM) | pIC50 (second compound 10 µM)
7.16: pIC50 (second compound 0.1 µM)
active: viability, T/C [6] 8.12% | viability, T/C [11] 6.86% | viability, T/C [12] 4.83% | viability, T/C [17] 7.4% | viability, T/C [18] 3.38% | viability, T/C [23] 6.26% | viability, T/C [24] 4.47% | viability, T/C [29] 3.4% | viability, T/C [30] 1.04%
inactive: viability, T/C [1] 55.6% | viability, T/C [2] 47% | viability, T/C [3] 33.8% | viability, T/C [4] 21.5% | viability, T/C [5] 8.48% | viability, T/C [7] 48.5% | viability, T/C [8] 46.1% | viability, T/C [9] 31.3% | viability, T/C [10] 12.5% | viability, T/C [13] 46% | viability, T/C [14] 44.4% | viability, T/C [15] 27.5% | viability, T/C [16] 16.6% | viability, T/C [19] 42.4% | viability, T/C [20] 35% | viability, T/C [21] 19.1% | viability, T/C [22] 11.5% | viability, T/C [25] 39% | viability, T/C [26] 31.1% | viability, T/C [27] 22.9% | viability, T/C [28] 13.2%

COc1cc(Nc2ncc3c(n2)-c2ccc(Cl)cc2C(c2c(F)cccc2OC)=NC3)ccc1C(=O)O + C=CC(=O)N1CCN(c2nc(=O)n(-c3c(C)ccnc3C(C)C)c3nc(-c4c(O)cccc4F)c(F)cc23)C(C)C1
> 7.50: pIC50 (second compound 0.1 µM) | pIC50 (second compound 0.316 µM) | pIC50 (second compound 1 µM) | pIC50 (second compound 3.16 µM) | pIC50 (second compound 10 µM)
inactive: viability, T/C [1] 12.1% | viability, T/C [2] 9.76% | viability, T/C [3] 10.6% | viability, T/C [4] 12.4% | viability, T/C [5] 12.6% | viability, T/C [6] 9.6% | viability, T/C [7] 10.1% | viability, T/C [8] 11.5% | viability, T/C [9] 11.1% | viability, T/C [10] 9.91% | viability, T/C [11] 13.6% | viability, T/C [12] 10.8% | viability, T/C [13] 10.6% | viability, T/C [14] 12% | viability, T/C [15] 10.6% | viability, T/C [16] 10.7% | viability, T/C [17] 12.5% | viability, T/C [18] 11.3% | viability, T/C [19] 9.6% | viability, T/C [20] 11.2% | viability, T/C [21] 10.2% | viability, T/C [22] 11.9% | viability, T/C [23] 12.6% | viability, T/C [24] 10.9% | viability, T/C [25] 9.5% | viability, T/C [26] 13.1% | viability, T/C [27] 12.6% | viability, T/C [28] 12.4% | viability, T/C [29] 15.2% | viability, T/C [30] 11.9%
